Assay results: ChEMBL document CHEMBL5518155, “Recent advances on dual inhibitors targeting HIV reverse transcriptase associated polymerase and ribonuclease H” (Eur J Med Chem, 2023)
One block for each molecule: values may come before it.

What was measured:
[1] = Inhibition of DNA polymerase (unknown origin); design: species or system Homo sapiens
[2] = target: T1, Human immunodeficiency virus type 1 reverse transcriptase (Human immunodeficiency virus 1, UniProt Q72547); test: Inhibition of HIV-1 RNase H
[3] = target: T1, Human immunodeficiency virus type 1 reverse transcriptase; test: Inhibition of recombinant HIV-1 reverse transcriptase associated RNase H expressed in Escherichia coli BL21 (DE3) using 5-GTTTTCTTTTCCCCCCTGAC-3 Fluorescein/5CAAAAGAAAAGGGGGGACUG-3-Dabcyl as substrate incubated for 1 hr by multilabel counter plate reader method
[4] = Inhibition of HIV-1 RNA-dependent […]; design: species or system Human immunodeficiency virus 1
[5] = test system: Human immunodeficiency virus 1; test: Antiviral activity against HIV-1 harboring L100I mutant infected in human MT4 cells assessed as virus-induced cytopathicity treated for 5 days by MTT assay; assay type: functional, organism-based; settings: Human immunodeficiency virus 1, MT4, 120 h
[6] = target: T1, Human immunodeficiency virus type 1 reverse transcriptase; test: Inhibition of recombinant HIV-1 reverse transcriptase associated RNA-dependent DNA polymerase activity incubated for 30 mins by liquid scintillation method
[7] = Inhibition of Escherichia coli DNA polymerase I
[8] = test system: Human immunodeficiency virus 1; test: Antiviral activity against wild-type HIV-1 IIIB infected in human MT4 cells assessed as virus-induced cytopathicity treated for 5 days by MTT assay; assay type: functional, organism-based; settings: Human immunodeficiency virus 1, IIIB, MT4, 120 h
[9] = target: T1, Human immunodeficiency virus type 1 reverse transcriptase; test: Inhibition of N-terminal 6-his-tagged HIV-1 reverse transcriptase RNase H (427 to 560 residues) transfected in Escherichia coli BL21 (DE3)
[10] = Cytotoxicity against HEK-293T cells assessed as reduction in cell growth measured for 72 hrs by MTT assay; assay type: toxicity, cell-based; settings: human
[11] = test system: Human immunodeficiency virus 1; test: Antiviral activity against HIV-1 harboring reverse transcriptase […] mutant infected in human MT4 cells assessed as reduction in virus-induced cytopathic effect; assay type: functional, organism-based; settings: Human immunodeficiency virus 1, MT4
[12] = target: T1, Human immunodeficiency virus type 1 reverse transcriptase; test: Inhibition of HIV-1 reverse transcriptase associated RNA-dependent DNA polymerase
[13] = target: T1, Human immunodeficiency virus type 1 reverse transcriptase; test: Inhibition of HIV-1 RNase H polymerase activity
[14] = test system: Hepatitis B virus; test: Antiviral activity against HBV infected in human HepDES19 cells assessed as reduction in cccDNA accumulation by southern blot analysis; assay type: functional, organism-based
[15] = test system: Human immunodeficiency virus 1; test: Antiviral activity against HIV1; assay type: functional, organism-based
[16] = Cytotoxicity against african green monkey Vero E6 cells incubated for 24 hrs by Cell-titer 96 cell proliferation assay; assay type: toxicity, cell-based, Vero C1008; settings: chlorocebus sabaeus
[17] = test system: Hepatitis B virus; test: Antiviral activity against HBV infected in AML12HBV10 cells assessed as reduction viral replication incubated for 48 hrs; assay type: functional, organism-based; settings: AML12HBV10, 48 h
[18] = test system: Human alphaherpesvirus 1; test: Antiviral activity against HSV-1 KOS infected in African green monkey Vero cells assessed as reduction in virus induced cytopathogenicity by plaque reduction assay; assay type: functional, organism-based; settings: Human alphaherpesvirus 1, KOS
[19] = test system: Human alphaherpesvirus 1; test: Antiviral activity against HSV-1 infected in African green monkey Vero cells by plaque reduction assay; assay type: functional, organism-based; settings: Human alphaherpesvirus 1, Vero
[20] = test system: Human alphaherpesvirus 2; test: Antiviral activity against HSV-2 infected in African green monkey Vero cells assessed as reduction in virus induced cytopathogenicity by plaque reduction assay; assay type: functional, organism-based; settings: Human alphaherpesvirus 2, Vero
[21] = test system: TZM; test: Cytotoxicity against human TZM-bl cells assessed as reduction in viability incubated for 48 hrs by MTT assay; assay type: functional
[22] = test system: Human immunodeficiency virus 1; test: Antiviral activity against wild type HIV-1 IIIB infected in human MT4 cells assessed as protection against virus-induced cytopathic effect incubated for 5 days by MTT assay; assay type: functional, organism-based; settings: Human immunodeficiency virus 1, IIIB, MT4, 120 h

SMILES: NC(=O)c1c(N)sc2c1CCCCC2
IC50 [3]: 2 µM

SMILES: COC(=O)c1c(C)cc(O)c(=O)c(O)c1Br
EC50 [5]: 2.2 µM

SMILES: O=C(Oc1ccc2c(c1OC(=O)c1ccccc1)C(=O)c1ccccc1C2=O)c1ccccc1
IC50 [4]: 12 µM
CC50 at 72 h [10]: ~100 µM
EC50 [11]: > 100 µM

SMILES: Nc1ccc(S(=O)(=O)N2CCN(C(=O)c3cc(O)c(O)c(O)c3)CC2)cc1
IC50 [12]: > 50 µM

SMILES: O=C(Nc1sc2c(c1C(=O)Nc1ccccn1)CCCCC2)c1ccc(O)c(O)c1
IC50 [3]: 0.84 µM

SMILES: COC(=O)c1c(C)cc(OC)c(=O)c(O)c1OC
IC50 [13]: 13.5 µM
EC50 [14]: 5.6 µM

SMILES: COc1ccccc1C(=O)N1CCC(NC(=O)c2cc(O)c(O)c(O)c2)CC1
IC50 [13]: 13.1 µM
IC50 [12]: 39.9 µM

SMILES: COc1cc(OC)cc(OC(=O)c2ccc(C(F)(F)F)cc2Nc2cc(Cl)ccc2C)c1
EC50 [15]: 5 µM
IC50 [12]: 16.1 µM
IC50 [4]: 16.1 µM
CC50 at 24 h [16]: > 50 µM

SMILES: COC(=O)c1c(C)cc(OC)c(=O)c(O)c1O
EC50 [17]: 0.93 µM

SMILES: COC(=O)c1c(C)cc(O)c(=O)c(O)c1O
EC50 [18]: 0.19 µM
IC50 [13]: 1.5 µM
EC50 [14]: 6 µM
EC50 [19]: 0.19 µM
EC50 [20]: 0.4 µM

SMILES: O=C1c2ccccc2C(=O)c2c1ccc(O)c2O [ATHRAQUINONES A]
IC50 [3]: > 100 µM
IC50 [4]: 79 µM

More lines, main results first:

IC50 [1]: > 50 µM
IC50 [2]: 15 µM
SMILES: COc1ccc2ccccc2c1/C=N/NC(=O)c1ccc(O)c(O)c1

IC50 [4]: 1.4 µM
SMILES: O=C1Nc2ccccc2/C1=N/Nc1nc(-c2ccc(O)c(O)c2)cs1

IC50 [6]: 0.8 µM
IC50 [7]: 12.5 µM
IC50 [9]: 3.5 µM
SMILES: CC(C)(C)c1ccc(C(=O)N/N=C/c2c(O)ccc3ccccc23)cc1
EC50 [8]: 1.5 µM

IC50 [6]: 9.5 µM
IC50 [2]: 1.3 µM
SMILES: N#Cc1ccc(-c2csc(NN=C3C(=O)Nc4ccccc43)n2)cc1

IC50 [6]: 9.8 µM
IC50 [2]: 10 µM
SMILES: Cn1c(-c2ccc(-c3ccccc3)cc2)cs/c1=N/N=C1\C(=O)Nc2ccc(Cl)cc21

IC50 [12]: 20.5 µM
IC50 [9]: 1.86 µM
SMILES: O=C(Nc1nc2n(n1)C(c1ccccc1)C=C(c1ccccc1)N2)c1ccc(O)c(O)c1 (stereo not drawn)

IC50 [4]: 8 µM
IC50 [2]: 4.5 µM
SMILES: COc1ccc(-c2cccc(C(N)=O)c2)cc1/C=N/Nc1nc(-c2ccc([N+](=O)[O-])cc2)cs1

EC50 [18]: 0.052 µM
EC50 [19]: 0.052 µM
EC50 [20]: 0.05 µM
SMILES: Cc1cc(O)c(=O)c(O)c(O)c1C(=O)c1ccc(-c2ccccc2)cc1

IC50 [13]: 7 µM
IC50 [12]: 17 µM
SMILES: Nc1nn(C(=O)c2ccc(Cl)cc2)c(N)c1C(=S)Nc1ccccc1
CC50 [21]: 44 µM
EC50 [22]: 25 µM

EC50 [19]: 0.22 µM
SMILES: COc1cc(C)c(C(=O)c2ccc(-c3ccccc3)cc2)c(O)c(O)c1=O

IC50 [1]: 2 µM
IC50 [2]: 3 µM
SMILES: COc1ccc2ccccc2c1/C=N/NC(=O)c1ccc(C(C)(C)C)cc1

IC50 [4]: 4 µM
IC50 [2]: 6 µM
SMILES: COc1c(/C=C/C(=O)c2ccc(-c3ccccc3)cc2)ccc2ccccc12

IC50 [3]: 0.53 µM
SMILES: O=c1oc(-c2ccc(O)c(O)c2)nc2sc3ccccc3c12

IC50 [12]: > 100 µM
IC50 [9]: 13.1 µM
SMILES: CC1=CC(c2ccccc2)n2nc(NC(=O)CCCc3ccc(C)cc3)nc2N1 (stereo not drawn)
